Data from paper PMC7057854, “Adapting free energy perturbation simulations for large macrocyclic ligands: how to dissect contributions from direct binding and free ligand flexibility” (Chemical Science, 2020).

Tests used:
[1] = HPLC-based LogD determination; conditions: for tR (retention time used for LogD determination): HPLC-UV 254 nm, Nucleodur C18 Gravity, 50 mM ammonium acetate pH 7.4 (A) / acetonitrile (B), 0 min 0 % B to 20 min 95 % B, 1 mL/min, acetylated peptides, triplicates
[2] = set-up: method as in earlier work; conditions: octanol-water partitioning, received from literature; ref 3–5 (supplement); cited from earlier work
Source text: page 19: Table S8: Reference compounds used to establish a calibration curve for LogD determination.

[3] = molecular target: T1, 14-3-3ζ full length His-tag (Homo sapiens, UniProt P63104); test: biochemical; assay type: binding; conditions: for BEI (binding efficiency index): BEI = pKd/(MW × 10^–3), pKd from direct FP of FITC-labelled peptides
T1 sequence (P63104 1-245): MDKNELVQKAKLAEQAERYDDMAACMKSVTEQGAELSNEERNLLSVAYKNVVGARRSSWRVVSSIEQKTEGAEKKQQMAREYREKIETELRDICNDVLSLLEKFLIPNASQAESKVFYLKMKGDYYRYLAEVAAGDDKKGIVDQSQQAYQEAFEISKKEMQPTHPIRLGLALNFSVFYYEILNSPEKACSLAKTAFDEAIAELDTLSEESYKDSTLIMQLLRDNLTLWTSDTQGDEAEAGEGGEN

[4] = molecular target: T1, 14-3-3ζ full length His-tag; test: biochemical

| Compound | tR (retention time used for LogD determination) [1] | Kd [3] | chromatographic logD ([1]; pH 7.4) | further results |
| --- | --- | --- | --- | --- |
| COc1ccc([C@@H]2Sc3ccccc3N(CCN(C)C)C(=O)[C@@H]2OC(C)=O)cc1 [Diltiazem, reference compound] | 15.31±0.002 min | – | – | LogD of reference compound [2]: 2.70 |
| CC(CCc1ccccc1)NCC(O)c1ccc(O)c(C(N)=O)c1 (stereo not drawn) [Labetolol, reference compound] | 12.14±0.010 min | – | – | – |
| COCCc1ccc(OCC(O)CNC(C)C)cc1 (stereo not drawn) [Metoprolol, reference compound] | 10.21±0.024 min | – | – | LogD of reference compound [2]: -0.06 |
| CC(C)C[C@H](NC(=O)[C@H](CC(=O)O)NC(=O)[C@H](CC(C)C)NC(=O)[C@]1(C)CCCCCCCC[C@@](C)(NC(=O)CNC(=O)[C@H](CCC(N)=O)NC(=O)COCCOCCNC(=S)Nc2ccc3c(c2)C(=O)OC32c3ccc(O)cc3Oc3cc(O)ccc32)C(=O)N[C@@H](CC(C)C)C(=O)N[C@@H](CC(=O)O)C(=O)N1)C(=O)N[C@@H](C)C(=O)N[C@@H](C)C(N)=O [S430A] | – | 72 ± 5 nM | – | – |
| CC(=O)N[C@@H](CCC(N)=O)C(=O)NCC(=O)N[C@]1(C)CCCCCCCC[C@@](C)(C(=O)N[C@@H](CC(C)C)C(=O)N[C@@H](CC(=O)O)C(=O)N[C@@H](CC(C)C)C(=O)N[C@@H](C)C(=O)N[C@@H](CO)C(N)=O)NC(=O)[C@H](CC(=O)O)NC(=O)[C@H](CC(C)C)NC1=O [compound 1] | 12.58±0.197 min | – | 1.15 ± 0.068 | – |
| CC(C)C[C@H](NC(=O)[C@H](CC(=O)O)NC(=O)[C@H](CC(C)C)NC(=O)[C@]1(C)CCCCCCCC[C@@](C)(NC(=O)CNC(=O)[C@H](CCC(N)=O)NC(=O)COCCOCCNC(=S)Nc2ccc3c(c2)C(=O)OC32c3ccc(O)cc3Oc3cc(O)ccc32)C(=O)N[C@@H](CC(C)C)C(=O)N[C@@H](CC(=O)O)C(=O)N1)C(=O)N[C@@H](C)C(N)=O [compound 2] | – | 355 nM | – | BEI (binding efficiency index) [3]: 4.07 |
| CC(C)C[C@H](NC(=O)[C@H](CC(=O)O)NC(=O)[C@H](CC(C)C)NC(=O)[C@]1(C)CCCCCCCC[C@@](C)(NC(=O)CNC(=O)[C@H](CCC(N)=O)NC(=O)COCCOCCNC(=S)Nc2ccc3c(c2)C(=O)OC32c3ccc(O)cc3Oc3cc(O)ccc32)C(=O)N[C@@H](CC(C)C)C(=O)N[C@@H](CC(=O)O)C(=O)N1)C(N)=O [compound 3] | – | 2880 nM | – | BEI (binding efficiency index) [3]: 3.66 |
| CC(C)C[C@@H]1NC(=O)[C@](C)(NC(=O)CNC(=O)[C@H](CCC(N)=O)NC(=O)COCCOCCNC(=S)Nc2ccc3c(c2)C(=O)OC32c3ccc(O)cc3Oc3cc(O)ccc32)CCCCCCCC[C@@](C)(C(=O)N[C@@H](CC(C)C)C(=O)N[C@@H](CC(=O)O)C(N)=O)NC(=O)[C@H](CC(=O)O)NC1=O [compound 4] | – | > 100000 nM | – | BEI (binding efficiency index) [3]: 2.86 |
| CC(=O)NCC(=O)N[C@]1(C)CCCCCCCC[C@@](C)(C(=O)N[C@@H](CC(C)C)C(=O)N[C@@H](CC(=O)O)C(=O)N[C@@H](CC(C)C)C(N)=O)NC(=O)[C@H](CC(=O)O)NC(=O)[C@H](CC(C)C)NC1=O [compound 5] | 12.75±0.003 min | – | 1.26 | Δlog D relative to 7 (H/H) ([1]; pH 7.4): 0.63 |
| CC(C)C[C@H](NC(=O)[C@H](CC(=O)O)NC(=O)[C@H](CC(C)C)NC(=O)[C@]1(C)CCCCCCCC[C@@](C)(NC(=O)COCCOCCNC(=S)Nc2ccc3c(c2)C(=O)OC32c3ccc(O)cc3Oc3cc(O)ccc32)C(=O)N[C@@H](CC(C)C)C(=O)N[C@@H](CC(=O)O)C(=O)N1)C(N)=O [compound 6] | – | 12300 nM | – | BEI (binding efficiency index) [3]: 3.70 |
| CC(=O)NCC(=O)N[C@@H]1CCCCCCCC[C@@H](C(=O)N[C@@H](CC(C)C)C(=O)N[C@@H](CC(=O)O)C(=O)N[C@@H](CC(C)C)C(N)=O)NC(=O)[C@H](CC(=O)O)NC(=O)[C@H](CC(C)C)NC1=O [compound 7] | 11.70±0.007 min | – | 0.63 ± 0.019 | – |
| CC(=O)NCC(=O)N[C@@H]1CCCCCCCC[C@@](C)(C(=O)N[C@@H](CC(C)C)C(=O)N[C@@H](CC(=O)O)C(=O)N[C@@H](CC(C)C)C(N)=O)NC(=O)[C@H](CC(=O)O)NC(=O)[C@H](CC(C)C)NC1=O [compound 8] | 12.37±0.003 min | – | – | LogD ([1]; pH 7.4): 1.03±0.031 |
| CC(=O)NCC(=O)N[C@]1(C)CCCCCCCC[C@@H](C(=O)N[C@@H](CC(C)C)C(=O)N[C@@H](CC(=O)O)C(=O)N[C@@H](CC(C)C)C(N)=O)NC(=O)[C@H](CC(=O)O)NC(=O)[C@H](CC(C)C)NC1=O [compound 9] | 12.35±0.003 min | – | 1.01 ± 0.031 | Ki [4]: > 31600 nM |
| CC[C@@]1(C(=O)N[C@@H](CC(C)C)C(=O)N[C@@H](CC(=O)O)C(=O)N[C@@H](CC(C)C)C(N)=O)CCCCCCCC[C@@](C)(NC(=O)CNC(C)=O)C(=O)N[C@@H](CC(C)C)C(=O)N[C@@H](CC(=O)O)C(=O)N1 [compound 10] | 12.78±0.009 min | – | 1.28 ± 0.04 | – |
| CC[C@@]1(NC(=O)CNC(C)=O)CCCCCCCC[C@@](C)(C(=O)N[C@@H](CC(C)C)C(=O)N[C@@H](CC(=O)O)C(=O)N[C@@H](CC(C)C)C(N)=O)NC(=O)[C@H](CC(=O)O)NC(=O)[C@H](CC(C)C)NC1=O [compound 11] | 12.88±0.003 min | – | 1.33 ± 0.041 | – |
| CC[C@@]1(NC(=O)CNC(C)=O)CCCCCCCC[C@@](CC)(C(=O)N[C@@H](CC(C)C)C(=O)N[C@@H](CC(=O)O)C(=O)N[C@@H](CC(C)C)C(N)=O)NC(=O)[C@H](CC(=O)O)NC(=O)[C@H](CC(C)C)NC1=O [compound 12] | 12.92±0.001 min | – | 1.35 | Δlog D relative to 5 (Me/Me) ([1]; pH 7.4): 0.09 |
